Experimental data from patent publication US7138376B2, “Methods and compositions for treating hepatitis C virus using 4'-modified nucleosides” (Idenix Pharmaceuticals, Inc., priority 2001, dated 2006).

Assays:
[1] = test system: HCV; conditions: cited from earlier work
[2] = test system: HCV protease; conditions: SDS-PAGE and autoradiography assay; cited from earlier work
[3] = test system: MDBK; assay: Cytotoxicity assay (CC50, sulforhodamine B staining); type: cell-based; conditions: MDBK cells; 4 days incubation; concentration reducing cell number by 50%; preliminary results
Experimental: The test compounds were dissolved in DMSO at an initial concentration of 200 μM and then were serially diluted in culture medium.
Cells are seeded at a rate of between 5×10^3 and 5×10^4/well into 96-well plates in growth medium overnight at 37° C. in a humidified CO2 (5%) atmosphere. New growth medium containing serial dilutions of the drugs is then added. After incubation for 4 days, cultures are fixed in 50% TCA and stained with sulforhodamineB. The optical density was read at 550 nm. The cytotoxic concentration was expressed as the concentration required to reduce the cell number by 50% (CC50).

## NC(=O)c1ncn([C@@H]2O[C@H](CO)[C@@H](O)[C@H]2O)n1 [Ribavirin, 1-β-D-ribofuranosyl-1-1,2,4-triazole-3-carboxamide]
[1]; patients, sole treatment
  effect on serum levels of HCV-RNA: does not lower serum levels of HCV-RNA
[1]; ribavirin alone
  patients in whom serum amino transferase levels are reduced to normal: 40%

## CCCC(=O)c1cc2c(c(O)c1C)C(=O)C(=O)c1c(O)cccc1-2 [Sch 68631]
[2]
  activity against HCV protease: micromolar activity

## C[C@]1(CO)O[C@@H](n2ccc(=S)[nH]c2=O)[C@H](O)[C@@H]1O [β-D-4′-CH3-ribo-4-thioU, 1-(4-C-methyl-β-D-ribofuranosyl)4-thio-uracil]
other
  melting point: 65 to 70 °C (dec.)
[3]
  CC50: > 250 µM

## C[C@]1(CO)O[C@@H](n2cc(F)c(=O)[nH]c2=O)[C@H](O)[C@@H]1O [β-D-4′-CH3-ribo-5-fluoroU]
[3]
  CC50: > 167 µM

## C[C@]1(CO)O[C@@H](n2cnc3c(N)ncnc32)[C@H](O)[C@@H]1O [β-D-4′-CH3-riboA, 9-(4-C-methyl-β-D-ribofuranosyl) adenine]
other
  melting point: 96 to 97 °C (dec.)
[3]
  CC50: > 250 µM

## C[C@]1(CO)O[C@@H](n2ccc(N)nc2=O)[C@H](O)[C@@H]1O [β-D-4′-CH3-riboC, 1-(4-C-methyl-β-D-ribofuranosyl)cytosine]
[3]
  CC50: > 250 µM

## C[C@]1(CO)O[C@@H](n2cnc3c(=O)[nH]c(N)nc32)[C@H](O)[C@@H]1O [β-D-4′-CH3-riboG, 9-(4-C-methyl-β-D-ribofuranosyl) guanine]
[3]
  CC50: > 250 µM

## Cc1cn([C@@H]2O[C@](C)(CO)[C@@H](O)[C@H]2O)c(=O)[nH]c1=O [β-D-4′-CH3-riboT, 1-(4-C-methyl-β-D-ribofuranosyl)thymine]
other
  melting point: 258 to 260 °C (dec.)
[3]
  CC50: > 250 µM
